Data reported in US20020192171A1, “Method for preventing malodor” (priority 2001, published 2002).

Experiments:
skin = conditions: human, in vivo
underarm odor = assay: Deodorant value test (modified), odor assessment on axillae of human subjects; type: in vivo; conditions: general statement in description
Protocol: A typical test for deodorant effect of the present invention was carried out as follows. The test solution was the composition containing 0.4% monensin. The positive control was 8.2% aluminum chlorhydrate, a level that is used in most deodorant or antiperspirant products on the market and 0.4% chlorhesidine digluconate, a level that is usually used for bacterial killing. The negative control was a vehicle consisting of 60% ethanol and 40% water. Three experienced underarm odor assessors who are able to rank correctly the odor intensities based on the deodorant value test system (U.S. Pat. No. 4,278,658) performed odor assessments. Deodorant assessment scores were recorded according to the malodor category scale, when applied directly to the axillae skin of a panel of human subjects. [table] The described in deodorant value test system has been modified by measuring odor intensity every 24 hours after treatment until odor intensity is detectable (average score 1 or up) on a 0-5 score instead of just 24 hours after In example 2, fifteen subjects selected by experienced odor assessors have average odor score 3.5 (range from score 3-5). […] At 24 hour intervals, each subject was evaluated for underarm odor by averaging the score of the three assessors until odor in test groups was detectable (score 1 or up).

## CC[C@@]1([C@@H]2O[C@@H]([C@H]3O[C@@](O)(CO)[C@H](C)C[C@@H]3C)C[C@@H]2C)CC[C@H]([C@]2(C)CC[C@]3(C[C@H](O)[C@@H](C)[C@@H]([C@@H](C)[C@@H](OC)[C@H](C)C(=O)O)O3)O2)O1 [monensin, Monensin]
skin
  skin irritation: did not cause any irritation
Underarm odor
  duration of deodorant effect in preventing malodor: deodorant effect with a longer period than expected
